Test results published in patent publication US4665083A, “Iminothiazolidine derivatives” (priority 1984, dated 1987).

Key:
pentatetrazole spasm = experiment: animal or person; assay type: in vivo; conditions: for Therapeutical index (inhibition of pentatetrazole spasm): LD50 and ED50 pentatetrazole spasm, mice; for ED50: Mus musculus, po, read-out: Inhibition of pentatetrazole spasm ED50
Protocol: (6) Inhibition of pentatetrazole spasm
The test is performed on mice according to a modified method of Banziger and Hane.

Reserpine ptosis = experiment: animal or person; assay type: in vivo
Protocol: (3) Reserpine ptosis antagonism on mice
Each group consisting of 10 mice are treated with 6 mg/kg of reserpine, subcutaneously. […] The animals with ptosis are counted 60 and 120 minutes after the administration of the compounds to be tested. Evaluation is carried out as given under point (2) above.

in vivo = conditions: mouse, mice, oral, 7 days observation, Litchfield-Wilcoxon
Protocol: (1) Acute toxicity on mice
The acute toxicity is determined on mice of both sex (CFLP breed, body weight 18 to 22 g). For each dosis 6 animals are employed. The compounds tested are administered orally in a volume of 20 ml/kg body weight. After the administration the animals are observed for 7 days. During this period the animals are fed with standard mouse feed and water ad libitum. The toxicity values are determined according to Litchfield-Wilcoxon's method.

acetic acid writhing = experiment: animal or person; assay type: in vivo; conditions: for Therapeutical index (analgesic effect, writhing test): LD50 and ED50 writhing test, mice; for ED50: Mus musculus, ip, read-out: Analgesic effect (writhing test) ED50
Protocol: (9) Analgesic effect on mice (writhing test)
The test is carried out on mice according to the modified method of Newbould. 0.75 percent acetic acid is administered to the animals in a volume of 20 ml/kg, intraperitoneally, and the characteristic "writhing reactions" are counted for a period of 5 minutes, starting from the fifth minute after challenge. […] The inhibition relative to the control group is evaluated in percentage.

maximum electroshock = experiment: animal or person; assay type: in vivo; conditions: for Therapeutical index (inhibition of maximum electroshock): LD50 and ED50 electroshock, mice; for ED50: Mus musculus, po, read-out: Inhibition of maximum electroshock ED50
Protocol: (7) Maximum inhibition of electroshock
The examination is carried out on mice weighing 20 to 25 g according to Swinyard. Electroshocks having the parameters of 50 Hz, 45 mA and 0.4 sec are employed by means of corneal electrodes. The complete inhibition of the tonic spasm of the lower limb extensor is taken as the criterium of the anticonvulsive action.

Tetrabenazine ptosis = experiment: animal or person; assay type: in vivo; conditions: for Therapeutical index (tetrabenazine ptosis antagonism): LD50 and ED50 tetrabenazine ptosis, mice; for ED50: Mus musculus, po, read-out: Tetrabenazine ptosis antagonism ED50
Protocol: (2) Tetrabenazine ptosis antagonism on mice
The tetrabenazine ptosis antagonism of the compounds are tested on groups consisting of 10 mice each. […] 30 minutes after the introduction of the active agent or the vehicle, 50 mg/kg of tetrabenazine (3-isobutyl-9,10-[…]-1,2,3,4,6,7-hexahydrobenzo[a]quinolizine-2-one) are administered, intraperitoneally, and the animals with ptosis are counted 30, 60, 90 and 120 minutes after the administration of the tetrabenazine.
Evaluation: the average ptosis value is calculated in each group, and the deviation from the average obtained for the control group (inhibition) is given in percentage. From the data obtained ED50 values are calculated.

yohimbine toxicity = experiment: animal or person; assay type: in vivo; conditions: for Therapeutical index (potentiation of yohimbine toxicity): LD50 and ED50 yohimbine toxicity, mice; for ED50: Mus musculus, ip, read-out: Potentiation of yohimbine toxicity ED50
Protocol: (4) Yohimbine toxicity test on mice.
The examination is performed according to Quinton's method. Each group of animals consisting of 10 mice are treated with the compounds to be tested and the vehicle without active agent, respectively. After one hour a sublethal dosage of yohimbine in a volume of 20 ml/kg body weight is administered to the test groups, intraperitoneally. The number of the dead animals is recorded 1 and 24 hours after the administration of yohimbine.

intestinal peristalsis = experiment: animal or person; assay type: in vivo
Protocol: (8) Antiperistaltic effect on mice
The antiperistaltic effect of the compounds is examined on mice weighing 20 to 25 g according to the method of Stickney and co-workers. Each dosis of the compound to be tested is administered, orally, 60 minutes prior to the administration of a 10 percent carbon suspension. […] 20 minutes after the administration of the carbon suspension, the animals are sacrificed, and the length of the entire small intestine as well as that of the small intestine filled with carbon are determined. The inhibition in relation to the control is calculated in percentage. […] From the values thus-transformed ED50 values are calculated.

nicotine lethality = experiment: Inhibition of nicotine spasm / nicotine lethality; assay type: in vivo, mice; conditions: mice; for Therapeutical index (inhibition of nicotine lethality): LD50 and ED50 nicotine lethality; for ED50: Mus musculus, oral, 1 hour before 1.4 mg/kg i.v. nicotine, read-out: Inhibition of nicotine lethality ED50
Protocol: (5) Inhibition of nicotine spasm
The test is carried out on mice according to Stone.

narcosis = experiment: Potentiation of narcosis; conditions: for Therapeutical index (potentiation of narcosis): LD50 and ED50 narcosis; for ED50: read-out: Potentiation of narcosis ED50

| SMILES | Therapeutical index (inhibition of pentatetrazole spasm) (pentatetrazole spasm) | ED50 (pentatetrazole spasm) [mg/kg] | Therapeutical index (reserpine ptosis antagonism) (Reserpine ptosis; LD50 and ED50 reserpine ptosis, mice) | ED50 (Reserpine ptosis; Mus musculus, sc, 1 h, read-out: Reserpine ptosis antagonism ED50) [mg/kg] | LD50 at 168 h (in vivo) [mg/kg] | Therapeutical index (analgesic effect, writhing test) (acetic acid writhing) | ED50 (acetic acid writhing) [mg/kg] | Therapeutical index (inhibition of maximum electroshock) (maximum electroshock) | ED50 (maximum electroshock) [mg/kg] | Therapeutical index (tetrabenazine ptosis antagonism) (Tetrabenazine ptosis) | ED50 (Tetrabenazine ptosis) [mg/kg] | Therapeutical index (potentiation of yohimbine toxicity) (yohimbine toxicity) | ED50 (yohimbine toxicity) [mg/kg] | Therapeutical index (inhibition of intestinal peristalsis) (intestinal peristalsis; LD50 and ED50 intestinal peristalsis, mice) | ED50 (intestinal peristalsis; Mus musculus, po, read-out: Inhibition of intestinal peristalsis ED50) [mg/kg] | Therapeutical index (inhibition of nicotine lethality) (nicotine lethality) | ED50 (nicotine lethality) [mg/kg] | Therapeutical index (potentiation of narcosis) (narcosis) | ED50 (narcosis) [mg/kg] |
| --- | --- | --- | --- | --- | --- | --- | --- | --- | --- | --- | --- | --- | --- | --- | --- | --- | --- | --- | --- |
| CCS(=O)(=O)O.CCS(=O)(=O)O.N=C1SCCN1c1ccc(Cl)cc1N [Compound 8, 3-(2-amino-4-chlorophenyl)-2-iminothiazolidine di(ethanesulfonate)] | 71.4 | 14 | 50 | 20 | 1000 | 5.9 | 170 | 12.5 | 80 | 667 | 1.5 | 45.5 | 22 | 10.5 | 95 | 83.3 | 12 | – | – |
| CC1CN(c2ccc(Cl)cc2N)C(=N)S1.CCS(=O)(=O)O (stereo not shown) [Compound 12, 3-(2-amino-4-chlorophenyl)-2-imino-5-methylthiazolidine ethanesulfonate] | 40 | 15 | – | – | – | 17.7 | 34 | 30 | 12 | 83 | 7.2 | 13.3 | 45 | – | – | 100 | 6 | 14.0 | 41 |
| CCCC(C)(COC(N)=O)COC(N)=O [Meprobamate, reference compound] | – | – | – | – | 1100 | – | – | – | – | – | – | – | – | – | – | – | – | 4.2 | 260 |
